Source: US10472347B2, “Aminopyrazine compounds with A2A antagonist properties” (Merck Sharp & Dohme Corp., priority 2014, dated 2019)

target: T1, human A2a receptor (Homo sapiens, UniProt P29274); experiment: A2a competition binding assay, Scintillation Proximity technology; conditions: membranes from HEK293 cells expressing human A2a receptor; Ki by Cheng-Prusoff equation
T1 construct: purchased Perkin-Elmer RBHA2AM400UA; host or cells: HEK293 cells (membranes)
In short: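 SPA competition: 0.5 nM tritiated pyrazolotriazolopyrimidine ligand displaced by compound at 3000 to 0.15 nM, 1 h room temperature, human A2a HEK293 membranes pretreated with adenosine deaminase, PBS/10 mM MgCl2 buffer. CGS15943 1 μM defined non-specific binding; EC50 converted to Ki via Cheng-Prusoff.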

T1 sequence (P29274 whole entry): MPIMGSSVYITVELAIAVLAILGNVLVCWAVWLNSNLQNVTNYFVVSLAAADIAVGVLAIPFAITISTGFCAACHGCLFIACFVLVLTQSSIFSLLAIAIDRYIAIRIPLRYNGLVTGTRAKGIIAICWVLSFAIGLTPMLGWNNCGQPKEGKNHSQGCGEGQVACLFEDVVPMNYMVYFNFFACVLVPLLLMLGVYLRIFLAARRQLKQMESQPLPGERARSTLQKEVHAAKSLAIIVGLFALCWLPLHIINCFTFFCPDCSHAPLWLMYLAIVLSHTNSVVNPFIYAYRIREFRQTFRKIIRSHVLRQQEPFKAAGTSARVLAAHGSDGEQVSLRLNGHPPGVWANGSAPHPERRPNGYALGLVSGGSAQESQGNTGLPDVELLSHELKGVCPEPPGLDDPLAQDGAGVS

Structure (SMILES)	Ki [nM]
Cc1nc(C(=O)N[C@H]2CC[C@@H](C(F)(F)F)CC2)c(N)nc1-c1ncco1 [Ex-101, 3-amino-6-methyl-5-(1,3-oxazol-2-yl)-N-[cis-4-(trifluoromethyl)cyclohexyl] pyrazine-2-carboxamide]	12.9
Cc1ccc2nc(CNC(=O)c3nc(C)c(-c4ncco4)nc3N)cn2c1 [Ex-102, 3-amino-6-methyl-N-[(6-methylimidazo[1,2-a]pyridin-2-yl)methyl]-5-(1,3-oxazol-2-yl)pyrazine-2-carboxamide]	11.9
Cc1nc(C(=O)NCc2n[nH]c3c2CCC3)c(N)nc1-c1ncco1 [Ex-103, 3-amino-6-methyl-5-(1,3-oxazol-2-yl)-N-(1,4,5,6-tetrahydrocyclopenta[c]pyrazol-3-ylmethyl)pyrazine-2-carboxamide]	0.353
Cc1nc(C(=O)N(C)C(C)c2ccccn2)c(N)nc1-c1ncco1 (centres unmarked) [Ex-106, 3-amino-N,6-dimethyl-5-(1,3-oxazol-2-yl)-N-(1-pyridin-2-ylethyl)pyrazine-2-carboxamide]	252
Cc1cc(F)cnc1CNC(=O)c1nc(C)c(-c2ncco2)nc1N [Ex-107, 3-amino-N-[(5-fluoro-3-methylpyridin-2-yl)methyl]-6-methyl-5-(1,3-oxazol-2-yl)pyrazine-2-carboxamide]	1.15
Cc1nc(C(=O)NCc2nccc(C(F)(F)F)n2)c(N)nc1-c1ncco1 [Ex-108, 3-amino-6-methyl-5-(1,3-oxazol-2-yl)-N-{[4-(trifluoromethyl)pyrimidin-2-yl]methyl}pyrazine-2-carboxamide]	6.58
Cc1nc(C(=O)NCc2ncc(F)cn2)c(N)nc1-c1ncco1 [Ex-109, 3-amino-N-[(5-fluoropyrimidin-2-yl)methyl]-6-methyl-5-(1,3-oxazol-2-yl)pyrazine-2-carboxamide]	15
COc1ccnc(CNC(=O)c2nc(C)c(-c3ncco3)nc2N)n1 [Ex-110, 3-amino-N-[(4-methoxypyrimidin-2-yl)methyl]-6-methyl-5-(1,3-oxazol-2-yl)pyrazine-2-carboxamide]	1.32
Cc1ccn2cc(CNC(=O)c3nc(C)c(-c4ncco4)nc3N)nc2c1 [Ex-111, 3-amino-6-methyl-N-[(7-methylimidazo[1,2-a]pyridin-2-yl)methyl]-5-(1,3-oxazol-2-yl)pyrazine-2-carboxamide]	82.2
Cc1nc(C(=O)NCC(=O)c2ccc(F)cc2)c(N)nc1-c1ncco1 [Ex-112, 3-amino-N-[2-(4-fluorophenyl)-2-oxoethyl]-6-methyl-5-(1,3-oxazol-2-yl)pyrazine-2-carboxamide]	14.5
Cc1nc(C(=O)NCCCN2CCC(F)(F)C2)c(N)nc1-c1ncco1 [Ex-113, 3-amino-N-[3-(3,3-difluoropyrrolidin-1-yl)propyl]-6-methyl-5-(1,3-oxazol-2-yl)pyrazine-2-carboxamide]	30.2
Cc1nc(C(=O)NCc2cn(CC3CC3)cn2)c(N)nc1-c1ncco1 [Ex-114, 3-amino-N-{[1-(cyclopropylmethyl)-1H-imidazol-4-yl]methyl}-6-methyl-5-(1,3-oxazol-2-yl)pyrazine-2-carboxamide]	5.76
Cc1nc(C(=O)NC2CCC(F)(F)C2)c(N)nc1-c1ncco1 (centres unmarked) [Ex-115, 3-amino-N-(3,3-difluorocyclopentyl)-6-methyl-5-(1,3-oxazol-2-yl)pyrazine-2-carboxamide]	8.74
Cc1nc(C(=O)NC2CCCN(CC(F)(F)F)C2)c(N)nc1-c1ncco1 (centres unmarked) [Ex-116, 3-amino-6-methyl-5-(1,3-oxazol-2-yl)-N-[1-(2,2,2-trifluoroethyl)piperidin-3-yl]pyrazine-2-carboxamide]	21.4
Cc1nc(C(=O)NC2CCCNC2)c(N)nc1-c1ncco1 (centres unmarked) [Ex-117, 3-amino-6-methyl-5-(1,3-oxazol-2-yl)-N-piperidin-3-ylpyrazine-2-carboxamide]	104
Cc1nc(C(=O)N[C@H]2CC[C@H](C(F)(F)F)CC2)c(N)nc1-c1ncco1 [Ex-118, 3-amino-6-methyl-5-(1,3-oxaozl-2-yl)-N-[trans-4-(trifluoromethyl)cyclohexyl] pyrazine-2-carboxamide]	31.7
Cc1nc(C(=O)NCc2cccc(C(C)(C)O)n2)c(N)nc1-c1ncco1 [Ex-119]	6.24
Cc1cn(C)c(CNC(=O)c2nc(C)c(-c3ncco3)nc2N)n1 [Ex-120, 3-amino-N-[(1,4-dimethyl-1H-imidazol-2-yl)methyl]-6-methyl-5-(1,3-oxazol-2-yl)pyrazine-2-carboxamide]	5.81
Cc1nc(C(=O)NCc2cccc(C(F)(F)F)n2)c(N)nc1-c1ncco1 [Ex-121, 3-amino-6-methyl-5-(1,3-oxazol-2-yl)-N-{[6-(trifluoromethyl)pyridin-2-yl]methyl}pyrazine-2-carboxamide]	3.18
COCc1cccc(CNC(=O)c2nc(C)c(-c3ncco3)nc2N)n1 [Ex-122, 3-amino-N-{[6-(methoxymethyl)pyridin-2-yl]methyl}-6-methyl-5-(1,3-oxazol-2-yl)pyrazine-2-carboxamide]	2.91

Next, values leading:

Ki [nM]	Structure (SMILES)
17.4	COCCNC(=O)c1nc(C)c(-c2ncco2)nc1N [Ex-123, 3-amino-N-(2-methoxyethyl)-6-methyl-5-(1,3-oxazol-2-yl)pyrazine-2-carboxamide]
1.77	COc1ncccc1CNC(=O)c1nc(C)c(-c2ncco2)nc1N [Ex-124, 3-amino-N-[(2-methoxypyridin-3-yl)methyl]-6-methyl-5-(1,3-oxazol-2-yl)pyrazine-2-carboxamide]
18.8	Cc1nc(C(=O)N2CCc3cccnc3C2)c(N)nc1-c1ncco1 [Ex-125, 3-(5,8-dihydro-1,7-naphthyridin-7(6H)-ylcarbonyl)-5-methyl-6-(1,3-oxazol-2-yl)pyrazin-2-amine]
83	Cc1nc(C(=O)NCc2ncc(C(F)(F)F)cn2)c(N)nc1-c1ncco1 [Ex-126, 3-amino-6-methyl-5-(1,3-oxazol-2-yl)-N-{[5-(trifluoromethyl)pyrimidin-2-yl]methyl}pyrazine-2-carboxamide]
0.279	Cc1nc(C(=O)NCc2nccn2C2CCC2)c(N)nc1-c1ncco1 [Ex-127, 3-amino-N-[(1-cyclobutyl-1H-imidazol-2-yl)methyl]-6-methyl-5-(1,3-oxazol-2-yl)pyrazine-2-carboxamide]
12.5	Cc1nc(C(=O)NCC2CC2)c(N)nc1-c1ncco1 [Ex-128, 3-amino-N-(cyclopropylmethyl)-6-methyl-5-(1,3,-oxazol-2-yl)pyrazine-2-carboxamide]
0.198	Cc1nc(C(=O)NCc2cc(F)ccc2O)c(N)nc1-c1ncco1 [Ex-129, 3-amino-N-(5-fluoro-2-hydroxybenzyl)-6-methyl-5-(1,3-oxazol-2-yl)pyrazine-2-carboxamide]
3.41	Cc1nc(C(=O)N[C@H]2c3ccccc3C[C@@H]2O)c(N)nc1-c1ncco1 [Ex-130, 3-amino-N-[(1S,2S)-2-hydroxy-2,3-dihydro-1H-inden-1-yl]-6-methyl-5-(1,3-oxazol-2-yl)pyrazine-2-carboxamide]
10.3	Cc1nc(C(=O)N2CCC2c2ccccc2)c(N)nc1-c1ncco1 (centres unmarked) [Ex-131, 5-methyl-6-(1,3-oxazol-2-yl)-3-[(2-phenylazetidin-1-yl)carbonyl]pyrazin-2-amine]
0.357	Cc1nc(C(=O)NCc2cccs2)c(N)nc1-c1ncco1 [Ex-132, 3-amino-6-methyl-5-(1,3-oxazol-2-yl)-N-(thiophen-2-ylmethyl)pyrazine-2-carboxamide]
2.59	Cc1nc(C(=O)NCc2ccc(C(C)C)cc2)c(N)nc1-c1ncco1 [Ex-133, 3-amino-6-methyl-N-[4-(1-methylethyl)benzyl]-5-(1,3-oxazol-2-yl)pyrazine-2-carboxamide]
3.39	Cc1nc(C(=O)NCc2ccc(C3CC3)cc2)c(N)nc1-c1ncco1 [Ex-134, 3-amino-N-(4-cyclopropylbenzyl)-6-methyl-5-(1,3-oxazol-2-yl)pyrazine-2-carboxamide]
0.169	Cc1cccc(CNC(=O)c2nc(C)c(-c3ncco3)nc2N)c1F [Ex-135, 3-amino-N-(2-fluoro-3-methylbenzyl)-6-methyl-5-(1,3-oxazol-2-yl)pyrazine-2-carboxamide]
0.267	Cc1cc(C)c(CNC(=O)c2nc(C)c(-c3ncco3)nc2N)c(C)c1 [Ex-136, 3-amino-6-methyl-5-(1,3-oxazol-2-yl)-N-(2,4,6-trimethylbenzyl)pyrazine-2-carboxamide]
0.307	Cc1cc(CNC(=O)c2nc(C)c(-c3ncco3)nc2N)ccc1F [Ex-137, 3-amino-N-(4-fluoro-3-methylbenzyl)-6-methyl-5-(1,3-oxazol-2-yl)pyrazine-2-carboxamide]
0.588	Cc1nc(C(=O)N[C@H]2CCc3ccccc32)c(N)nc1-c1ncco1 [Ex-138, 3-amino-N-[(1S)-2,3-dihydro-1H-inden-1-yl]-6-methyl-5-(1,3-oxazol-2-yl)pyrazine-2-carboxamide]
3.03	CCc1ccc(CNC(=O)c2nc(C)c(-c3ncco3)nc2N)cc1 [Ex-139, 3-amino-N-(4-ethylbenzyl)-6-methyl-5-(1,3-oxazol-2-yl)pyrazine-2-carboxamide]
0.225	Cc1nc(C(=O)N[C@@H]2CCc3ccccc32)c(N)nc1-c1ncco1 [Ex-140, 3-amino-N-[(1R)-2,3-dihydro-1H-inden-1-yl]-6-methyl-5-(1,3-oxazol-2-yl)pyrazine-2-carboxamide]
0.391	Cc1nc(C(=O)NCc2cccn2C)c(N)nc1-c1ncco1 [Ex-141, 3-amino-6-methyl-N-[(1-methyl-1H-pyrrol-2-yl)methyl]-5-(1,3-oxazol-2-yl)pyrazine-2-carboxamide]
0.704	Cc1nc(C(=O)NCc2ccc(C)n2C)c(N)nc1-c1ncco1 [Ex-142, 3-amino-N-[(1,5-dimethyl-1H-pyrrol-2-yl)methyl]-6-methyl-5-(1,3-oxazol-2-yl)pyrazine-2-carboxamide]
1.72	COc1cccc(CNC(=O)c2nc(C)c(-c3ncco3)nc2N)c1 [Ex-143, 3-amino-N-(3-methoxybenzyl)-6-methyl-5-(1,3-oxazol-2-yl)pyrazine-2-carboxamide]
